Results published in patent publication US6579718B1, “Carbazolylvinyl dye protein stains” (Molecular Probes, Inc., priority 2000, dated 2003).

Assays:
[1] = test system: broad-range protein molecular weight markers; test: Staining of broad-range molecular weight protein standards in SDS-polyacrylamide gels (Example 22, FIG. 2, 3)
Method: (§1) FIG. 2: Intensity profile comparison after staining broad-range protein molecular weight markers with SYPRO Orange dye in 7% acetic acid and phosohate-buffered saline. FIG. 2A.) Profile obtained with SYPRO Orange dye in 7% acetic acid. FIG. 2B.) Profile obtained with SYPRO Orange dye in 50 mM sodium phosphate, 150 mM sodium chloride, pH 7.0. Grey scale values of the fluorescence signals were inverted prior to obtaining the traces to facilitate evaluation of the peaks.
as §1, with “3:” for “2:”, “Compound 9” for “SYPRO Orange dye”, “phosphate-buffered” for “phosohate-buffered”, “3A.)” for “2A.)”, “3B.)” for “2B.)”
SDS-polyacrylamide gel electrophoresis is performed by standard methods utilizing 4% T, 2.6% C stacking gels, pH 6.8 and 15% T, 2.6% C separating gels, pH 8.8. % T is the total monomer concentration expressed in grams per 100 mL and % C is the percentage crosslinker. A staining solution of Compound 9 is prepared by diluting a stock solution that 5 is […] dye in DMSO in either 7.5% acetic acid or 50 mM Na2HPO4, 150 mM NaCl, pH 7.0 with vigorous mixing. Alternatively, a wide range of buffers are compatible with staining, including but not limited to formate, pH 4.0; citrate, pH 4.5; acetate, pH 5.0; MES, pH 6.0;
imidazole, pH 7.0; HEPES, pH 7.5; Tris acetate, pH 8.0; Tris-HCl, pH 8.5; Tris borate, 20 mM EDTA, pH 9.0; and bicarbonate, pH 10.0. Buffers should be prepared as 50-100 mM 10 solutions containing about 150 mM NaCl. Approximately 50-75 mL of staining solution is used for a typical mini-gel (5 cm×9 cm×1 mm). The gel is placed into the staining solution and the container is covered with aluminum foil to protect the dye from bright light. The gel is gently agitated for at least 30 minutes at room temperature using an orbital shaker (50:RPM). After staining, the gel is briefly dipped in water and visualized on a UV light box. […] As little as 1 ng of protein may be visualized when the fluorescent image is recorded by photography using a cellophane 490-nm long pass filter. […] In the latter buffer, protein bands are barely detectable above background fluorescence with these latter dyes.

proteins [2] = test: Dye staining and dye stability in 12.5% trichloroacetic acid
Method: To make a staining mixture to combine with the sample mixture, including to test new dyes for their ability to stain proteins in a variety of situations, the selected dye is typically first dissolved in an organic solvent, such as DMSO, DMF or methanol, usually to a dye concentration of 1-10 mM. This concentrated stock solution is then generally diluted with an aqueous solution according to the assay being performed. Staining solutions can be stored and used for months without signal loss. The selected dye effectively stains proteins in a wide range of buffers if 100 mM NaCl is included in the staining solution. Acceptable buffers include, among others, 50-100 mM formate buffer, pH 4.0, sodium citrate, pH 4.5, sodium acetate, pH 5.0, MES, pH 6.0, imidazole, pH 7.0, HEPES, pH 7.5, Tris acetate, pH 8.0, Tris-HCl, pH 8.5, Tris borate, pH 9.0 and sodium bicarbonate, pH 10. Dye staining can also be performed in 12.5% trichloroacetic acid. […] A 20-minute wash in water removes the background and sensitive staining is obtained. […] Acetic acid may be included in the staining mixture, typically to a concentration of 5%-7.5% acetic acid, e.g. to improve labeling of gels relative to that obtained for dyes in water. For staining polypeptides in solution, the dye is diluted into an aqueous solution—preferably a buffered solution—that optionally contains a detergent. […]

bovine serum albumin = bovine serum albumin (Bos taurus, UniProt P02769); test: Fluorescence enhancement in presence of bovine serum albumin and SDS in solution (FIG. 5); type: physicochemical; settings: 10 mM Tris, pH 8.0, 200 μg/mL bovine serum albumin
Method: FIG. 5: Fluorescence enhancement of Compound 9 in the presence of bovine serum albumin and sodium dodecyl sulfate in solution. Dye in 10 mM Tris, pH 8.0, 200 μg/mL bovine serum albumin, 0.05% SDS was compared with dye in 10 mM Tris, pH 8.0, 200 μg/mL bovine serum albumin, dye in 10 mM Tris, pH 8.0, 0.05% SDS or simply dye in 10 mM Tris, pH 8.0. A 7-fold enhancement in fluorescence emission of the dye in the presence of protein alone was observed relative to the dye in buffer alone. A 40-fold enhancement of fluorescence emission of the dye in the presence of anionic detergent and protein was observed relative to dye in buffer alone.

[3] = test system: whole cell lysates of rat fibroblasts; test: Staining of two-dimensional gels of rat fibroblast lysates (Example 23); settings: 2-D gel, photography with 490-nm long pass filter
Method: The non-fixative nature of the staining solution is illustrated by evaluating passive elution of proteins from a polyacrylamide matrix. Passive diffuision of proteins is evaluated by staining two-dimensional gels in 7% acetic acid or in phosphate-buffered saline using Compound 9. Whole cell lysates of rat fibroblasts are extracted according to standard procedures for mammalian cells. Approximately 50 μg total protein is applied per gel and large format two dimensional gel electrophoresis is performed by standard methods. Compound 9 staining solution is prepared by diluting the stock reagent to 2 μM in either 7.5% acetic acid or 50 mM Na2HPO4, 150 mM NaCl, pH 7.0 while vigorously mixing. Approximately 500-750 mL of Compound 9 staining solution is used for a typical large format 2-D gel (20 cm×20 cm×1 mm). The gel is placed into the staining solution and the container is covered with aluminum foil to protect the dye from bright light. The gel is gently agitated for at least 30 minutes at room temperature using an orbital shaker (50 RPM). After staining the gel is briefly dipped in water and visualized on a UV light box. […] As little as 1 ng of protein can be visualized when the fluorescent image is recorded by photography using a cellophane 490-nm long pass filter. […]

proteins [4] = test: Staining of proteins separated in presence of alternative detergents; settings: alternative detergents instead of SDS

bovine serum albumin, sequence (P02769 25-607): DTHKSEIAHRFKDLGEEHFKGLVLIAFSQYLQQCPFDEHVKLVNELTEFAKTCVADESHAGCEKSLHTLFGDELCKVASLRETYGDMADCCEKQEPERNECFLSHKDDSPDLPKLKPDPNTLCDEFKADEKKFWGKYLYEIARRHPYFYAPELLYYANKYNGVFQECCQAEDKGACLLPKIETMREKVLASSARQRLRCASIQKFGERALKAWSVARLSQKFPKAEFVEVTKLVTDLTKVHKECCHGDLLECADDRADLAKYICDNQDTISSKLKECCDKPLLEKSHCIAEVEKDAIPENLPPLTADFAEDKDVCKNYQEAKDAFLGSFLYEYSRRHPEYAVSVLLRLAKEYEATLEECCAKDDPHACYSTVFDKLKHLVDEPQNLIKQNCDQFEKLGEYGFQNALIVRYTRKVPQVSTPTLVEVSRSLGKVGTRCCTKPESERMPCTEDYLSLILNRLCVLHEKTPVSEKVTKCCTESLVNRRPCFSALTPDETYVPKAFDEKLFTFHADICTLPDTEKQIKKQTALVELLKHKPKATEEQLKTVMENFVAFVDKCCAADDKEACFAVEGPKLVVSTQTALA

CCn1c2ccccc2c2cc(/C=C/c3cc[n+](CCCCS(=O)(=O)[O-])c4ccccc34)ccc21 [Compound 9]
Brightness of protein band staining ([1]; 7% acetic acid): as brightly as SYPRO Orange dye
Amount of protein that may be visualized (detection sensitivity) ([1]; SDS-polyacrylamide gel, photography with 490-nm long pass filter): 1 ng
Brightness of protein staining compared with SYPRO Orange dye ([1]; phosphate-buffered saline): much more brightly
Appearance of stained proteins on UV light box ([1]; regardless of the buffer): bright orange bands
Staining of proteins in 12.5% trichloroacetic acid (proteins [2]): stains proteins brightly, but also with bright background fluorescence
Stability of dye on overnight exposure to 12.5% trichloroacetic acid (proteins [2]; overnight): destroys much of the dye
Enhancement in fluorescence emission, protein alone relative to dye in buffer alone (bovine serum albumin): 7 fold
Enhancement of fluorescence emission, anionic detergent and protein relative to dye in buffer alone (bovine serum albumin; 0.05% SDS): 40 fold
Amount of protein that can be visualized (detection sensitivity) [3]: 1 ng
Staining of proteins separated in presence of Triton X-100 or N-benzyl-N,N-dimethylhexadecylammonium chloride (proteins [4]): does not stain proteins
